According to ChEMBL document CHEMBL1147303, “Antimicrobial tetraprenylphenols from Suillus granulatus” (1989):
Converted amounts (≈) assume the structure as drawn.

Experiments:
Format in all cases: functional
Hafnia alvei = assay: Antibacterial activity against Hafnia alvei by serial broth dilution assay
Proteus mirabilis = assay: Antibacterial activity against Proteus mirabilis by serial broth dilution assay
Aeromonas hydrophila = assay: Antibacterial activity against Aeromonas hydrophila by serial broth dilution assay
Enterococcus faecalis = assay: Antibacterial activity against Streptococcus faecalis by serial broth dilution assay
Micrococcus luteus = assay: Antibacterial activity against Micrococcus luteus ATCC 4698 by paper disc-agar diffusion assay
Escherichia coli = assay: Antibacterial activity against Escherichia coli ATCC 25922 by serial broth dilution assay
Bacillus subtilis = assay: Antibacterial activity against Bacillus subtilis by serial broth dilution assay
Staphylococcus aureus = assay: Antibacterial activity against Staphylococcus aureus ATCC 25923 by serial broth dilution assay

SMILES | MIC (Hafnia alvei) [µg/mL] | MIC (Proteus mirabilis) [µg/mL] | MIC (Aeromonas hydrophila) [µg/mL] | MIC (Enterococcus faecalis) [µg/mL] | MIC (Micrococcus luteus) [µg/mL] | MIC (Escherichia coli) [µg/mL] | MIC (Bacillus subtilis) [µg/mL] | MIC (Staphylococcus aureus) [µg/mL]
CC(=O)Oc1c(O)ccc(O)c1C/C=C(\C)CC/C=C(\C)CC/C=C(\C)CCC=C(C)C | > 100 | > 100 | > 100 | 100 (≈ 227 µM) | 50 (≈ 113 µM) | 50 (≈ 113 µM) | > 100 | > 100
CC(=O)Oc1c(O)cc(O)cc1C/C=C(\C)CC/C=C(\C)CC/C=C(\C)CCC=C(C)C | > 100 | > 100 | 12.5 (≈ 28.4 µM) | > 100 | 50 (≈ 113 µM) | 6.25 (≈ 14.2 µM) | > 100 | > 100

Next, values leading:

MIC (Hafnia alvei) [µg/mL] | MIC (Proteus mirabilis) [µg/mL] | MIC (Aeromonas hydrophila) [µg/mL] | MIC (Enterococcus faecalis) [µg/mL] | MIC (Micrococcus luteus) [µg/mL] | MIC (Escherichia coli) [µg/mL] | MIC (Bacillus subtilis) [µg/mL] | MIC (Staphylococcus aureus) [µg/mL] | SMILES
> 100 | > 100 | > 100 | > 100 | > 100 | > 100 | > 100 | > 100 | CC(C)=CCC/C(C)=C/CC/C(C)=C/CCC1(C)C=Cc2c(ccc(O)c2O)O1 (stereo not given)
> 100 | > 100 | 0.78 (≈ 1.89 µM) | > 100 | 6.25 (≈ 15.1 µM) | 1.56 (≈ 3.78 µM) | > 100 | > 100 | COc1c(O)cc(O)cc1C/C=C(\C)CC/C=C(\C)CC/C=C(\C)CCC=C(C)C
> 100 | > 100 | > 100 | > 100 | 100 (≈ 242 µM) | > 100 | > 100 | > 100 | COc1ccc(O)c(O)c1C/C=C(\C)CC/C=C(\C)CC/C=C(\C)CCC=C(C)C
